Like-named read-outs stand apart in the source and are kept apart here.

For this test, the system named is Chlamydomonas reinhardtii. Description: 8-point dose response assay (0.25-30 μM). Also noted: reference not given here. The class given is cell-based. Particulars: for Dose Response Assay 0.25 μM: 0.25 μM compound; for Dose Response Assay 0.625 μM: 0.625 μM compound; for Dose Response Assay 2.5 μM: 2.5 μM compound; for Dose Response Assay 5 μM: 5 μM compound; for Dose Response Assay 10 μM: 10 μM compound; for Dose Response Assay 15 μM: 15 μM compound; for Dose Response Assay 30 μM: 30 μM compound. The method, then: A large scale in vivo high throughput screen (HTS) was performed to identify small compounds that stimulate lipid production and accumulation using the model organism Chlamydomonas reinhardtii. The HTS employed a 384-well microplate format in which cells were allowed to grow in the presence of the test compounds at 10 μM final concentration for 72 hours.
The screening library included 43,736 compounds (ChemBridge, Corp). […] A sub-set of compounds were retested using an 8-point dose response assay (0.25-30 μM). Compounds were further assessed visually using a Nikon Ti-inverted microscope (60×) to reconfirm lipid droplet accumulation was induced.

[1] abbreviates: 8-point dose response, Nile Red lipid accumulation.
Setting [2] is: 1.25 μM compound, 8-point dose response, Nile Red lipid accumulation.

In the case of `COc1cccc(CN2CCN(C(=O)c3cc(OC)c(OC)c(OC)c3)CC2)c1OC` [Compound 101], the “Dose Response Assay 1.25 μM” value was 1.14. Under setting [1], the “Dose Response Assay 0.25 μM” value is on record as 1.03, the “Dose Response Assay 0.625 μM” value worked out at 1.08, the “Dose Response Assay 2.5 μM” value came to 0.88 and the “Dose Response Assay 5 μM” value was 1.58. Moreover, under setting [1], the “Dose Response Assay 10 μM” value is 1.04, the “Dose Response Assay 15 μM” value is given as 1.43 and the “Dose Response Assay 30 μM” value is 1.75.

Regarding `O=C1CC(N2CCc3ccccc3C2)C(=O)N1c1ccc([N+](=O)[O-])cc1` (stereo not drawn) [Compound 58], under setting [1], the “Dose Response Assay 0.25 μM” value is 1.06, the “Dose Response Assay 0.625 μM” value came out at 0.94, the “Dose Response Assay 2.5 μM” value is listed as 0.90 and the “Dose Response Assay 5 μM” value is listed as 1.22. In addition, under setting [1], the “Dose Response Assay 10 μM” value is 1.15, the “Dose Response Assay 15 μM” value turned out to be 1.42 and the “Dose Response Assay 30 μM” value was 1.56. Also, under setting [2], the “Dose Response Assay 1.25 μM” value is recorded as 1.14.

On to `Cc1cccc(N2CCN(Cc3ccc([N+](=O)[O-])cc3)CC2)c1C` [Compound 74], for which the “Dose Response Assay 1.25 μM” value came to 0.80.

On to `Cc1c(C(=O)Nc2ccccc2C(=O)NCc2ccccc2)cccc1[N+](=O)[O-]` [Compound 55], for which, under setting [1], the “Dose Response Assay 0.25 μM” value is 1.3, the “Dose Response Assay 0.625 μM” value stood at 1.77, the “Dose Response Assay 2.5 μM” value was 2.27 and the “Dose Response Assay 5 μM” value amounted to 2.23. For the same compound, under setting [1], the “Dose Response Assay 10 μM” value is 2.04, the “Dose Response Assay 15 μM” value came out at 2.26 and the “Dose Response Assay 30 μM” value was determined as 2.77. The “Dose Response Assay 1.25 μM” value under setting [2] was 2.01.

Regarding `Cc1c(C(=O)Nc2ccc(F)c(F)c2)cccc1[N+](=O)[O-]` [Compound 17], under setting [1], the “Dose Response Assay 0.25 μM” value amounted to 1.09, the “Dose Response Assay 0.625 μM” value was 1.03, the “Dose Response Assay 2.5 μM” value was 0.89 and the “Dose Response Assay 5 μM” value is on record as 1.07. Moreover, under setting [1], the “Dose Response Assay 10 μM” value was found to be 0.92, the “Dose Response Assay 15 μM” value is given as 1.04 and the “Dose Response Assay 30 μM” value came out at 1.67. Under setting [2], the “Dose Response Assay 1.25 μM” value was 0.89.

Consider `COc1ccccc1C(=O)N1CCN(C(=O)C(c2ccccc2)c2ccccc2)CC1` [Compound 120], for which the “Dose Response Assay 1.25 μM” value came to 0.89. Moreover, under setting [1], the “Dose Response Assay 0.25 μM” value came to 0.91, the “Dose Response Assay 0.625 μM” value is recorded as 0.64, the “Dose Response Assay 2.5 μM” value came to 1.12 and the “Dose Response Assay 5 μM” value came out at 1.07. For the same compound, under setting [1], the “Dose Response Assay 10 μM” value is 2.15, the “Dose Response Assay 15 μM” value is 3.19 and the “Dose Response Assay 30 μM” value came to 1.02.

`CC(=O)Nc1ccc(S(=O)(=O)Nc2cc([N+](=O)[O-])ccc2C)cc1` [Compound 18]: under setting [1], the “Dose Response Assay 0.25 μM” value came out at 1.01, the “Dose Response Assay 0.625 μM” value turned out to be 0.97, the “Dose Response Assay 2.5 μM” value is reported as 1.13 and the “Dose Response Assay 5 μM” value is listed as 1.17. Under setting [1], the “Dose Response Assay 10 μM” value was found to be 1.19, the “Dose Response Assay 15 μM” value worked out at 1.31 and the “Dose Response Assay 30 μM” value came out at 1.29. Moreover, under setting [2], the “Dose Response Assay 1.25 μM” value is on record as 0.89.

Consider `Fc1ccc(CN2CCN(c3ccccc3Cl)CC2)cc1` [Compound 69], for which the “Dose Response Assay 1.25 μM” value was determined as 1.29. Under setting [1], the “Dose Response Assay 0.25 μM” value is 1.05, the “Dose Response Assay 0.625 μM” value worked out at 0.96, the “Dose Response Assay 2.5 μM” value stood at 3.01 and the “Dose Response Assay 5 μM” value worked out at 2.44. Under setting [1], the “Dose Response Assay 10 μM” value is given as 3.49, the “Dose Response Assay 15 μM” value came out at 3.49 and the “Dose Response Assay 30 μM” value came to 2.54.

In the case of `COc1cc(CN2CCN(Cc3ccccc3)CC2)cc(OC)c1` [Compound 99], the “Dose Response Assay 1.25 μM” value is 0.97. Further, under setting [1], the “Dose Response Assay 0.25 μM” value was found to be 0.98, the “Dose Response Assay 0.625 μM” value is reported as 0.84, the “Dose Response Assay 2.5 μM” value is given as 1.4 and the “Dose Response Assay 5 μM” value is recorded as 1.96. For the same compound, under setting [1], the “Dose Response Assay 10 μM” value turned out to be 2.96, the “Dose Response Assay 15 μM” value was 3.37 and the “Dose Response Assay 30 μM” value came out at 4.22.

In the case of `C=CCn1c(SCC(=O)O)nnc1-c1ccc([N+](=O)[O-])cc1` [Compound 25], under setting [1], the “Dose Response Assay 0.25 μM” value is recorded as 1.15, the “Dose Response Assay 0.625 μM” value is recorded as 1.13, the “Dose Response Assay 2.5 μM” value was determined as 1.02 and the “Dose Response Assay 5 μM” value was 1. Under setting [1], the “Dose Response Assay 10 μM” value was 1, the “Dose Response Assay 15 μM” value came to 1.33 and the “Dose Response Assay 30 μM” value amounted to 1.34. For the same compound, the “Dose Response Assay 1.25 μM” value under setting [2] was 0.99.

As for `O=[N+]([O-])c1ccccc1CN1CCN(CC2CC3C=CC2C3)CC1` (stereo not drawn) [Compound 124], the “Dose Response Assay 1.25 μM” value is on record as 0.99. In addition, under setting [1], the “Dose Response Assay 10 μM” value is recorded as 0.88.

For `Brc1ccc(CN2CCN(c3ccccc3)CC2)cc1` [Compound 86], the “Dose Response Assay 1.25 μM” value is on record as 1.69. In addition, under setting [1], the “Dose Response Assay 0.25 μM” value is recorded as 0.98, the “Dose Response Assay 0.625 μM” value is recorded as 1.01, the “Dose Response Assay 2.5 μM” value is given as 2.39 and the “Dose Response Assay 5 μM” value is 2.29. Further, under setting [1], the “Dose Response Assay 10 μM” value stood at 2.71, the “Dose Response Assay 15 μM” value came to 3.38 and the “Dose Response Assay 30 μM” value is 3.76.

On to `Cc1c(NC(=O)COc2ccc(Br)cc2)cccc1[N+](=O)[O-]` [Compound 47], for which, under setting [1], the “Dose Response Assay 0.25 μM” value was found to be 0.90, the “Dose Response Assay 0.625 μM” value is given as 0.81, the “Dose Response Assay 2.5 μM” value is reported as 1.3 and the “Dose Response Assay 5 μM” value is given as 0.95. For the same compound, under setting [1], the “Dose Response Assay 10 μM” value is 1.37, the “Dose Response Assay 15 μM” value is 1.27 and the “Dose Response Assay 30 μM” value was 1.19. Further, the “Dose Response Assay 1.25 μM” value under setting [2] came to 0.91.

In the case of `Cc1ccsc1C=C(C#N)c1nc(-c2ccc([N+](=O)[O-])cc2)cs1` [Compound 30], under setting [1], the “Dose Response Assay 0.25 μM” value amounted to 1.15, the “Dose Response Assay 0.625 μM” value came out at 1.05, the “Dose Response Assay 2.5 μM” value is 0.84 and the “Dose Response Assay 5 μM” value was 0.99. Besides, under setting [1], the “Dose Response Assay 10 μM” value was determined as 0.82, the “Dose Response Assay 15 μM” value is reported as 1.37 and the “Dose Response Assay 30 μM” value is 1.73. In addition, under setting [2], the “Dose Response Assay 1.25 μM” value stood at 1.16.

Regarding `COc1ccc(C(=O)NCCN2CCOCC2)cc1[N+](=O)[O-]` [Compound 24], under setting [1], the “Dose Response Assay 0.25 μM” value worked out at 1.13, the “Dose Response Assay 0.625 μM” value was determined as 0.87, the “Dose Response Assay 2.5 μM” value turned out to be 0.97 and the “Dose Response Assay 5 μM” value was 0.99. Under setting [1], the “Dose Response Assay 10 μM” value turned out to be 1.18, the “Dose Response Assay 15 μM” value is on record as 1.19 and the “Dose Response Assay 30 μM” value was 1.25. In addition, the “Dose Response Assay 1.25 μM” value under setting [2] is reported as 0.84.

On to `Cc1cc(C)c(NC(=O)COc2ccccc2[N+](=O)[O-])c(C)c1` [Compound 35], for which, under setting [1], the “Dose Response Assay 0.25 μM” value was 1.09, the “Dose Response Assay 0.625 μM” value came out at 1.49, the “Dose Response Assay 2.5 μM” value is 1.96 and the “Dose Response Assay 5 μM” value is 1.91. Further, under setting [1], the “Dose Response Assay 10 μM” value came out at 2.65, the “Dose Response Assay 15 μM” value turned out to be 2.5 and the “Dose Response Assay 30 μM” value is 2.51. In addition, the “Dose Response Assay 1.25 μM” value under setting [2] is 1.23.

Regarding `CCC1CCCCN1C(=O)c1ccc(Cl)cc1[N+](=O)[O-]` (stereo not drawn) [Compound 57], under setting [1], the “Dose Response Assay 0.25 μM” value turned out to be 0.99, the “Dose Response Assay 0.625 μM” value worked out at 1.06, the “Dose Response Assay 2.5 μM” value worked out at 0.90 and the “Dose Response Assay 5 μM” value is 1.28. Further, under setting [1], the “Dose Response Assay 10 μM” value is listed as 1.11, the “Dose Response Assay 15 μM” value stood at 1.15 and the “Dose Response Assay 30 μM” value is on record as 1.87. The “Dose Response Assay 1.25 μM” value under setting [2] was determined as 1.01.

Regarding `CC(=O)NC1=C(N2CCN(Cc3ccccc3)CC2)C(=O)c2ccccc2C1=O` [Compound 134], the “Dose Response Assay 1.25 μM” value was 0.93. Moreover, under setting [1], the “Dose Response Assay 0.25 μM” value is 0.97, the “Dose Response Assay 0.625 μM” value is 1.06, the “Dose Response Assay 2.5 μM” value worked out at 1.32 and the “Dose Response Assay 5 μM” value is given as 1.77. Also, under setting [1], the “Dose Response Assay 10 μM” value was determined as 1.31, the “Dose Response Assay 15 μM” value came to 1.97 and the “Dose Response Assay 30 μM” value came to 2.14.

Consider `CCN1CCN(Cc2ccc(N(CC)CC)cc2)CC1` [Compound 104], for which the “Dose Response Assay 1.25 μM” value is given as 3.96. For the same compound, under setting [1], the “Dose Response Assay 0.25 μM” value was 1.23, the “Dose Response Assay 0.625 μM” value came out at 3.68, the “Dose Response Assay 2.5 μM” value came to 5.27 and the “Dose Response Assay 5 μM” value was 4.04. Under setting [1], the “Dose Response Assay 10 μM” value amounted to 2.81, the “Dose Response Assay 15 μM” value is given as 3.28 and the “Dose Response Assay 30 μM” value amounted to 3.69.

Take `O=C(Nc1ccc(Cc2ccncc2)cc1)c1ccc([N+](=O)[O-])cc1Cl` [Compound 37]: under setting [1], the “Dose Response Assay 0.25 μM” value was determined as 1.04, the “Dose Response Assay 0.625 μM” value is given as 0.97, the “Dose Response Assay 2.5 μM” value was 1.85 and the “Dose Response Assay 5 μM” value is reported as 1.93. Further, under setting [1], the “Dose Response Assay 10 μM” value came to 1.76, the “Dose Response Assay 15 μM” value is on record as 1.16 and the “Dose Response Assay 30 μM” value is given as 1.15. Further, the “Dose Response Assay 1.25 μM” value under setting [2] is 1.39.

Source of the values: patent publication US10351883B2, “Compounds for increasing lipid synthesis and storage” (NUtech Ventures, priority 2015, dated 2019).
